The values below come from patent US9486422B2, “Small molecule inhibitors of Mcl-1 and the uses of thereof” (THE REGENTS OF THE UNIVERSITY OF MICHIGAN, priority 2011, dated 2016).

Like-named read-outs stand apart in the source and are kept apart here.

The target of one series is Mcl-1 (Homo sapiens, UniProt Q07820). Kind of series: FP-based binding assay, Mcl-1.
For series [1], the target named is Mcl-1/Bax protein-protein interactions (Homo sapiens, UniProt Q07820). The series can be described thus: SPR competitive solution binding assay, Mcl-1 to immobilized Bax. To be noted: Mcl-1 300 nM pre-incubated with inhibitor; read-out: IC50, inhibition of binding of Mcl-1 to Bax. The procedure: SPR experiments were performed using Biacore 2000 optical biosensors. Recombinant Bax, residues 1 to 100 (Novus Biologicals) and Mcl-1 proteins were used for competitive solution binding experiments. The details for immobilization of Bax protein, determination of the binding affinity of Mcl-1 to Bax, and conditions for testing Mcl-1 compounds are provided.
Recombinant Bax protein (residues 1-100) purchased from Novus Biologicals, Inc., was immobilized on a CM-5 sensor chip at different densities using standard EDC/NHS coupling chemistry followed by ethanolamine deactivation of the surfaces. […] Determination of kon, koff and Kd were calculated by simultaneous non-linear regression using BIAEvaluation software.
Using the same Bax immobilized CM5 chip, SPR competitive solution binding experiments were performed by pre-incubated Mcl-1 protein (300 nM) with tested small-molecule inhibitors for at least 30 minutes and then the reaction mixture was injected over the surfaces of the chip. Response units were measured at 60 seconds in the dissociation phase and the specific binding was calculated by subtracting the control surface (Fc1) signal from the surfaces with immobilized Bax. […] IC50 values were determined by non-linear least squares analysis using Graph Pad Prism 5.0 software.

In the next series the test system is BxPC-3. Kind of series: Cell growth inhibition (WST-8), BxPC-3. Format: cell-based. To be noted: Homo sapiens, BXPC-3, 96 h; 4 days treatment. The procedure:
(§1) Human PC cell lines AsPC-1, BxPC-3 and Capan-2 were cultured in RPMI 1640 medium, while Panc-1 and MiaPaCa were cultured in DMEM medium (Life Technologies), all supplemented with 10% fetal bovine serum (Thermo Scientific HyClone). The rate of cell growth inhibition after treatment with increasing concentrations of the tested compounds was determined by WST-8 assay as described in the manufacturers protocol (Dojindo Molecular Technologies Inc.).
In general terms: Tetrazolium dyes change colour on reduction, which living cells bring about.

The test system of the next series is Panc-1. The series can be described thus: Cell growth inhibition (WST-8), Panc-1. Format: cell-based. To be noted: Homo sapiens, PANC-1, 96 h; 4 days treatment. The procedure: as §1
Another series relates to AsPc1. Kind of series: Cell growth inhibition (WST-8), AsPc1. Format: cell-based. To be noted: Homo sapiens, ASPC1, 96 h; 4 days treatment. The procedure: as §1
In series [2] the test system is wild type (WT) murine embryonic fibroblasts (MEF). The series can be described thus: Induction of apoptosis in MEF WT cells. To be noted: 10 μM, 24 h. The format is cell-based.
The test system of series [3] is Bax/Bak-deficient (DKO) MEFs. Kind of series: Induction of apoptosis in MEF DKO cells. The format is cell-based, murine. To be noted: 10 μM, 24 h.
Series [4] in a line: Metabolic stability assay, liver microsomes. The format is in vitro ADME, mice. To be noted: mouse, pooled mouse liver microsomes; 1 μM compound, 1.2 mg/ml microsomes, 37° C. The procedure:
Metabolic stability of UMI-77 was determined using the pooled mice liver microsomes (XenoTech, LLC). The conditions of the assay and quantification of UMI-77 in different time points are provided.
The β-NADPH (Sigma-Aldrich) was dissolved in 0.1 M phosphate buffer containing 3.3 mM MgCl2 right before use. The pooled mice liver microsomes (XenoTech, LLC) were diluted with 0.1 M phosphate buffer containing 3.3 mM MgCl2, followed by adding the reduced β-NADPH solution. After initiating the enzymes by adding β-NADPH, the mixture was incubated at 37° C. for […] The tested compound UMI-77 was added into the mixture and incubated at 37° C. The final concentrations of the compound, microsomes, β-NADPH, phosphate buffer and MgCl2 were 1 μM, 1.2 mg/ml, 1 mM, 0.1 M, and 3.3 mM, respectively. An aliquot of 40 μl of mixture was collected at 0, 5, 10, 15, 30, 45 and 60 min and the reaction was stopped immediately by adding 120 μl of ice-cold acetonitrile containing an internal standard (100 mg/mL). The incubation solution was centrifuged at 14000 rpm for 5 minutes to precipitate protein. The UMI-77 concentration was determined by LC/MS/MS (Agilent 1200 HPLC system, Agilent Technologies and QTRAP 3200 mass spectrometer, Applied Biosystems/MDS Sciex). UMI-77 was detected under negative ionization mode and the multiple reaction monitoring (MRM) ion transition was m/z 468.1→221.0.

In series [5] the test system is bone marrow derived cells from patients with multiple myeloma. The series can be described thus: Cellular viability (trypan blue), multiple myeloma patient cells. The format is cell-based. To be noted: Homo sapiens, 0-10 μM, 0-72 hrs.
Description: Blood or bone marrow samples from multiple myeloma patients was obtained from treated or untreated patients after informed consent. Plasma cells were obtained after gradient density centrifugation using Ficoll Hypaque. Some samples were purified for C138^+ population using flow cytometry. In all cases, purity of the plasma cells was higher than 90%, as assessed by morphology.
Isolated MM cells were maintained in RPMI 1640 medium supplemented with 10% fetal bovine serum (Hyclone Laboratories, Logan, Utah) and 1% Penicillin-Streptomycin (Invitrogen, Carlsbad, Calif.), at 37° C. in a humidified incubator with 5% CO2. […] The number of viable cells was determined by trypan blue exclusion test with trypan blue (0.4%) purchased from Sigma Chemical Co. (St. Louis, Mo.). All experiments are performed in triplicate and statistical analysis was done using the t test (two tailed) with 95% confidence intervals between treated and untreated samples. P<0.05 was used to indicate statistical significance.
For series [6] the following is noted: mouse, in vivo, iv, 60 mg/kg.

Mcl-1, sequence (Q07820 171-327): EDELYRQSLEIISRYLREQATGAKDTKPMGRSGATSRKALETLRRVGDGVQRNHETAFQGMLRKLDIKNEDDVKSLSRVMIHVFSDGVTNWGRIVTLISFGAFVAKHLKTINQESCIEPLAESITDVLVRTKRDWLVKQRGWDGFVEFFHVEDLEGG
Mcl-1/Bax protein-protein interactions, sequence (Q07820 171-327): as above

The Ki is a dissociation constant, usually derived from enzyme kinetics or from competition with a known ligand. The IC50 is the concentration that gives 50% inhibition. The term half-life denotes the time in which the quantity being followed falls by half. Low readings indicate fast loss, high ones slow loss. Take `O=C(O)CSc1cc(NS(=O)(=O)c2ccc(Br)cc2)c2ccccc2c1O` [Compound 9, 2-((4-(4-Bromophenylsulfonamido)-1-hydroxynaphthalen-2-yl)thio)acetic acid]: the “fold improved binding to Mcl-1 compared to 2” value at Mcl-1 worked out at 7 fold. For the same compound, the Ki on Mcl-1 (FP and SPR based binding studies, read-out: Ki to Mcl-1) is 490 nM; on Mcl-1 (competitive FP, Ki calculated from IC50, read-out: Mcl-1 Ki ± SD), 490 ± 60 nM. The IC50 was 1870 ± 220 nM at Mcl-1 (competitive FP, Flu-BID 2 nM, Mcl-1 90 nM, read-out: Mcl-1 IC50 ± SD); 1430 ± 140 nM in series [1]; 3400 ± 400 nM in the series on BxPC-3; 4400 ± 1300 nM in the series on Panc-1; 16100 ± 4200 nM with AsPc1; 2500 to 5000 nM in [5]. In [2], the “apoptosis in MEF WT cells” value is “more than 60%”. In series [3], the “apoptotic cells in MEF DKO cells” value is on record as 16%. For the same compound, the half-life at 1 μM in [4] worked out at 45 min. The “histopathology (H&E) of normal tissues” value in series [6] was “did not cause damage to tested tissues from kidney, liver and pancreas”.
